Values quoted from earlier work, collected in US20250283018A1, “TOILET RIM BLOCKS WITH SCENT CHANGE” (SYMRISE AG, priority 2021, published 2025).
Where two headings read alike, the source gives them in different places.

[1] = Table 3, components of POWER PLATIN

Row | Compound | Bp. [° C.] (Table 2, components of PEACH) [°C] | Bp. [° C.] (Table 1, components of MARINA) [°C] | Bp. [° C.] [1] [°C] | other results
1 | CCCCCCC1OC(=O)CC1C (stereo not shown) [APRIFLOREN ®] | 274 | – | – | –
2 | CC(=O)OC(C)c1ccccc1 (stereo not shown) [STYROLYLACETAT] | 214 | 214 | – | –
3 | CC/C=C\CCOC(=O)OC [LEAFOVERT ®] | 189 | – | – | –
4 | C=CCCC(=O)C(=C)C1CCCCC1 [PHARAONE 10% DPG] | – | – | 0 | –
5 | BORNEOL L/ISOBORNEOL 65/35 | – | – | 212 | –
6 | CC(=O)c1oc2ccccc2c1C [NEROLIONE] | 272 | – | – | –
7 | C=CCOC(=O)COCCC(C)C [ALLYLAMYLGLYCOLAT] | – | – | 226 | –
8 | CC(O)COC(C)CO (stereo not shown) [DIPROPYLENGLYCOL] | 231 | 231 | 231 | –
9 | CC12CCC(CC1)C(C)(C)O2 [EUCALYPTOL NAT.] | – | 176 | – | –
10 | C=CCOC(=O)COC1CCCCC1 [CYCLOGALBANAT] | – | 256 | 256 | Bp. [° C.] (list of selected fragrances): 256 °C
11 | CO[C@]1(C)CC[C@@]23C[C@@H]1C(C)(C)[C@@H]2CC[C@H]3C [CEDROL METHYL ETHER] | – | – | – | Bp. [° C.] (list of selected fragrances): 270 °C
12 | CCOC(=O)CC(O)(CC(=O)OCC)C(=O)OCC | 294 | – | – | –
13 | C=CCc1ccc(O)c(OC)c1 [EUGENOL] | – | – | 253.2 | Bp. [° C.] (list of selected fragrances): 253.2 °C
14 | CC(C)=CCCC(C)CCO (stereo not shown) [CITRONELLOL 950] | – | – | 223 | –
15 | CC1(C)CCC[C@]2(C)[C@H]3CCO[C@]3(C)CC[C@@H]12 [AMBROXIDE] | – | 283 | – | –
16 | COc1ccc(C=O)cc1 [ANISALDEHYD REIN] | – | – | 248 | –
17 | CCOC(=O)C(C)CC (stereo not shown) [ETHYLMETHYLBUTYRAT-2] | 135 | 135 | – | –
18 | C/C=C/c1ccc(OC)cc1 [ANETHOL SUPRA 21.5 CELSIUS] | – | – | 234 | –
19 | C=CCOC(=O)CCC1CCCCC1 [ALLYLCYCLOHEXYLPROPIONAT] | – | – | – | Bp. [° C.] (list of selected fragrances): 250 °C
20 | C=CCOC(=O)COc1ccccc1 [ALLYLPHENOXYACETAT] | 266 | – | – | Bp. [° C.] (list of selected fragrances): 266 °C

Row | Compound | Bp. [° C.] (Table 2, components of PEACH) [°C] | Bp. [° C.] (Table 1, components of MARINA) [°C] | Bp. [° C.] [1] [°C] | other results
21 | CCCCCC1C(=O)CCC1CC(=O)OC (stereo not shown) [METHYLDIHYDROJASMONATE] | – | – | – | Bp. [° C.] (list of selected fragrances): 296 °C
22 | CC12CCC(CC1=O)C2(C)C (stereo not drawn) [KAMPFER DL] | – | 204 | – | –
23 | CCCCCCC1OC(=O)CC1C (stereo not shown) [3-METHYL-GAMMA-DECALACTONE] | – | – | – | Bp. [° C.] (list of selected fragrances): 293 °C
24 | CC12CCC(C1)C(C)(C)C2O (stereo not shown) [FENCHOL] | – | 212 | – | –
25 | CCCCCCOC(C)=O [HEXYLACETAT] | 169 | 169 | – | –
26 | CC1=CC(C)C(C=O)CC1 (stereo not shown) [VERTOCITRAL] | – | 187 | – | –
27 | CC(=O)OC1CC(C)CCC1C(C)C (stereo not shown) [MENTHYL ACETATE] | – | – | – | Bp. [° C.] (list of selected fragrances): 255 °C
28 | CCCCCC1C(=O)CCC1CC(=O)OC (stereo not shown) [HEDION] | 296 | – | 296 | –
29 | CCCCCC1CCC(=O)O1 (stereo not shown) [ALDEHYD C18 SOG.] | 250 | – | – | –
30 | C=CC(C)(O)CCC=C(C)CC (mixture of isomers) [ETHYLLINALOOL] | – | 224 | – | –
31 | CO[C@]1(C)CC[C@@]23C[C@@H]1C(C)(C)[C@@H]2CC[C@H]3C [CEDRAMBER] | – | 270 | 270 | –
32 | CCC(C)(O)CCCC(C)C (stereo not shown) [TETRAHYDROLINALOOL] | – | 197 | 197 | –
33 | CCCCCC(=O)OCC [ETHYLCAPRONAT] | 166 | – | – | –
34 | CSC | 37 | – | – | –
35 | C[C@@H]1CC[C@H]2C(C)(C)[C@H]3C[C@@]12CC[C@@]3(C)O [CEDROL CRIST. NAT.] | – | 283 | 283 | –
36 | CC1(C)[C@@H]2CC[C@@]1(C)[C@H](O)C2 (racemic) [ISOBORNEOL] | – | 211 | – | –
37 | TERPINEOL REIN | 219.16 | 219.16 | – | –
38 | CC/C=C\CCO [HEXENOL CIS-3] | 157 | 157 | – | –
39 | CCC/C=C/CO [HEXENOL TRANS-2] | 159 | – | – | –
40 | CCCCC1CCC(=O)O1 (stereo not shown) [OCTALACTON GAMMA] | 234 | – | – | –
